Measured values published in patent US10670605B2, “Cysteine reactive probes and uses thereof” (The Scripps Research Institute, priority 2015, dated 2020).

How the values were obtained:
Assay in all cases: Competitive isoTOP-ABPP, cell lysates
Type in all cases: binding
GSTP1 C48 (P09211) = GSTP1 C48 (P09211) (Homo sapiens, UniProt P09211)
IDH1 C269 (O75874) = IDH1 C269 (O75874) (Homo sapiens, UniProt O75874)
IRF4 C194 (Q15306) = target: T1, IRF4 C194 (Q15306) (Homo sapiens, UniProt Q15306); conditions: 500 μm in-vitro ramos
T1 sequence (Q15306 1-451): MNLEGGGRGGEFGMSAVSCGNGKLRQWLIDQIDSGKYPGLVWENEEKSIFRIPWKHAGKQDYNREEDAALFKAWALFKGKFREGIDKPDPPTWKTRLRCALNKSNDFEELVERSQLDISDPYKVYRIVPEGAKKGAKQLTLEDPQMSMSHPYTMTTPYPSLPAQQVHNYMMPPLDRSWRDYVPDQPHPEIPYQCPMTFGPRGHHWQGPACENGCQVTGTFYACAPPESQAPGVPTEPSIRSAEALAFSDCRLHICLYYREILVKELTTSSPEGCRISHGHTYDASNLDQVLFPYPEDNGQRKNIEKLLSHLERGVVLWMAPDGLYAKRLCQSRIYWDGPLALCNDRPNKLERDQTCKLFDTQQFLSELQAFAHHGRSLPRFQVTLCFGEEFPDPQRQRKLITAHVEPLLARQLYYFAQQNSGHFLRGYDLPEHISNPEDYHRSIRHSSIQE

PDIA6 C190 (Q15084) = target: T2, PDIA6 C190 (Q15084) (Homo sapiens, UniProt Q15084)
T2 sequence (Q15084 20-440): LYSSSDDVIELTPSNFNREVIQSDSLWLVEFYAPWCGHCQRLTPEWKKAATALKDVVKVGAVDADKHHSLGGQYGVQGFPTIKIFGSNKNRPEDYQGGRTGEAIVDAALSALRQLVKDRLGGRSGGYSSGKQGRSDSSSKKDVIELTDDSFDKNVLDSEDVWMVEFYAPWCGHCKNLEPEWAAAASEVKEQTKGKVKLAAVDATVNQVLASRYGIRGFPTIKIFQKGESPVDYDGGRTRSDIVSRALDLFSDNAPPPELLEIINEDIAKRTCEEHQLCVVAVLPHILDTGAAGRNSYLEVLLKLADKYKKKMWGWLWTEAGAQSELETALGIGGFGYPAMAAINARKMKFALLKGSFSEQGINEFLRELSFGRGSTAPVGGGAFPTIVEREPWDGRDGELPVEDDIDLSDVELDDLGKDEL

UBE2S C118 (Q16763) = target: T3, UBE2S C118 (Q16763) (Homo sapiens, UniProt Q16763); conditions: 500 μm in-vitro ramos
T3 sequence (Q16763 1-222): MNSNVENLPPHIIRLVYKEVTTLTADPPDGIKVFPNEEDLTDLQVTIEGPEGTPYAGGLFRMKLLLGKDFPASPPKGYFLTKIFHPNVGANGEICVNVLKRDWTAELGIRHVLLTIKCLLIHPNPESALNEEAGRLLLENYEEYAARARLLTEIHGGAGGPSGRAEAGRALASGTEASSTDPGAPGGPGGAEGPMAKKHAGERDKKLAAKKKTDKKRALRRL

UCHL3 C95 (P15374) = target: T4, UCHL3 C95 (P15374) (Homo sapiens, UniProt P15374)
T4 sequence (P15374 1-230): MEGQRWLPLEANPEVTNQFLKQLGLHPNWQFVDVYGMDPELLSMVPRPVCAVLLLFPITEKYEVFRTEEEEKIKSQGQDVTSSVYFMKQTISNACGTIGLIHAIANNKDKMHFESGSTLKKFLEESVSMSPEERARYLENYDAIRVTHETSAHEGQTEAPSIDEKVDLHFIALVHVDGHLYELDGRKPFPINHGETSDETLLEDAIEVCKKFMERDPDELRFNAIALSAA

XPO1 C34 (O14980) = XPO1 C34 (O14980) (Homo sapiens, UniProt O14980)
Sequence of XPO1 C34 (O14980) (O14980 whole entry): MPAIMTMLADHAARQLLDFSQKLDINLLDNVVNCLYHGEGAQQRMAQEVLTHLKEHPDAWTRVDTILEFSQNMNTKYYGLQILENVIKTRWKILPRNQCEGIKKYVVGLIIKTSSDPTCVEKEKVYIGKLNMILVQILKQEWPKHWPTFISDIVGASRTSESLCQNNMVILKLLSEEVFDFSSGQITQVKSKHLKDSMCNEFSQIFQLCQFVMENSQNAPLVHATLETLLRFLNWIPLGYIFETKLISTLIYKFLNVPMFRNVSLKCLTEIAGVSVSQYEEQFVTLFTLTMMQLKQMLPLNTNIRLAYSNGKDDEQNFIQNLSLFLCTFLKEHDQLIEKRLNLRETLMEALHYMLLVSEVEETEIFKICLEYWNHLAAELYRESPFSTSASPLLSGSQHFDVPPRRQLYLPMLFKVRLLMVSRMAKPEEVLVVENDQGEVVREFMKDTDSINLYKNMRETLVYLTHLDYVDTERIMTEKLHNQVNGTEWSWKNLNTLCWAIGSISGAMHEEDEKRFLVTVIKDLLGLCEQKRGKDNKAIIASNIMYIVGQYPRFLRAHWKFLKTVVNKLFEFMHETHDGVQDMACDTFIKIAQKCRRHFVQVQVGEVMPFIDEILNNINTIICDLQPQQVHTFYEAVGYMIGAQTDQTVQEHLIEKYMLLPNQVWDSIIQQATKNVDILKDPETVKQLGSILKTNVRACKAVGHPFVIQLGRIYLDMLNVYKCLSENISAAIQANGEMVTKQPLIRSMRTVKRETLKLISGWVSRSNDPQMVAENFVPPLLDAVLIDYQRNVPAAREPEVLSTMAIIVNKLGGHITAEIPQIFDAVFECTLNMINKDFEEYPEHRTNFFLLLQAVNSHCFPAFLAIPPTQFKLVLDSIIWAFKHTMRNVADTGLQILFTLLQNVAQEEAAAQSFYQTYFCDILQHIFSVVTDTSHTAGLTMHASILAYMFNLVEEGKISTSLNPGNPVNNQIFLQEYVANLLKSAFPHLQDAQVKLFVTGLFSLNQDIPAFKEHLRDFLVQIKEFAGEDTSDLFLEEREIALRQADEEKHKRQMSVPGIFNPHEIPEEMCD

ZNF217 C286 (O75362) = ZNF217 C286 (O75362) (Homo sapiens, UniProt O75362); conditions: 500 μm in-vitro ramos_231
Sequence of ZNF217 C286 (O75362) (O75362 whole entry): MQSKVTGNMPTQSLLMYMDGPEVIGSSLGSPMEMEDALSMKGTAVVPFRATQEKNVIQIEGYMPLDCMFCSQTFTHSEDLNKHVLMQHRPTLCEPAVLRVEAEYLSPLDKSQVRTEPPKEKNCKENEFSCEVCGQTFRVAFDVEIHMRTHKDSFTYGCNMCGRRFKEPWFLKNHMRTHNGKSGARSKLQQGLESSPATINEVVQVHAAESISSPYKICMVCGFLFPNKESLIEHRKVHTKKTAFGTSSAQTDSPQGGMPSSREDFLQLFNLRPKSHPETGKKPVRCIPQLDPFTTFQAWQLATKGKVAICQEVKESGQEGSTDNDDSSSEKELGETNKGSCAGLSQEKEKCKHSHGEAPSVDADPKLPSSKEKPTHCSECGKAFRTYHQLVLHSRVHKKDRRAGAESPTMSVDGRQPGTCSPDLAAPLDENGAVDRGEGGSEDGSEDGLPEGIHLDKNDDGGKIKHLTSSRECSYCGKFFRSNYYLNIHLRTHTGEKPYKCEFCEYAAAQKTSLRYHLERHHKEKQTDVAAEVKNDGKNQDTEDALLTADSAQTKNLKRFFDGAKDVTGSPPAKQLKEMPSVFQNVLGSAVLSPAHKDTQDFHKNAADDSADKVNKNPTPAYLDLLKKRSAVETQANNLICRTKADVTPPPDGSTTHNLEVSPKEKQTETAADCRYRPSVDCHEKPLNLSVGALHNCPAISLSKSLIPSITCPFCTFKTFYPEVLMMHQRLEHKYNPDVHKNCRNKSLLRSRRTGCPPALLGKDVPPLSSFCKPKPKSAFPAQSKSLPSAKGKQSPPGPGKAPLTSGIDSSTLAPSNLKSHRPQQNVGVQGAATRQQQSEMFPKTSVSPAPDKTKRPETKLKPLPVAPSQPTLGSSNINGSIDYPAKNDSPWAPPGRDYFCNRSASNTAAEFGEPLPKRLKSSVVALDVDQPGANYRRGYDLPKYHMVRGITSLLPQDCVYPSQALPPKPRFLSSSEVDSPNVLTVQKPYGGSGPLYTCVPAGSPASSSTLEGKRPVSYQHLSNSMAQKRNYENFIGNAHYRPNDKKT

Sequence of GSTP1 C48 (P09211) (P09211 whole entry): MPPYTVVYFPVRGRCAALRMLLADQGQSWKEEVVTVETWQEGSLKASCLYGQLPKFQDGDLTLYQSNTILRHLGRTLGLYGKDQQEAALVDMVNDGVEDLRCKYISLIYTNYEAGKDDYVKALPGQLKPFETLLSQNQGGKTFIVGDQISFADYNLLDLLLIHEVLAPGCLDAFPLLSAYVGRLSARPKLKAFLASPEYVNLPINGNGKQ
Sequence of IDH1 C269 (O75874) (O75874 whole entry): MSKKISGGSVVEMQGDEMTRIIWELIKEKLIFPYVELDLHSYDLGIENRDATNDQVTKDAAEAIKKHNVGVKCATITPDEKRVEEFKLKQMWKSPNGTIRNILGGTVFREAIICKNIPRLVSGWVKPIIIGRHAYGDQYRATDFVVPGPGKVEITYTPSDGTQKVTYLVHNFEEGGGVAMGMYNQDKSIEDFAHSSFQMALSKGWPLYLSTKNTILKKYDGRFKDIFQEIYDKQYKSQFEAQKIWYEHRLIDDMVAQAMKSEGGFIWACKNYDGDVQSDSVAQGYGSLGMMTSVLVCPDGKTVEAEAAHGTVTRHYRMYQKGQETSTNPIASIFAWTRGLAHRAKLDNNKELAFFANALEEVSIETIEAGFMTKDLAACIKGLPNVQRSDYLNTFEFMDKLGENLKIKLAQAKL

| SMILES | isoTOP-ABPP ratio (reactivity profile), P09211_C48 (GSTP1 C48 (P09211); 500 μm in-vitro ramos) | isoTOP-ABPP ratio (reactivity profile), P09211_C48 (GSTP1 C48 (P09211); 500 μm in-vitro ramos_231) | R value (DMSO/fragment) (IDH1 C269 (O75874); 25 μM, endogenous IDH1, MDA-MB-231 proteome) | isoTOP-ABPP ratio (reactivity profile), O75874_C269 (IDH1 C269 (O75874); 500 μm in-vitro ramos) | isoTOP-ABPP ratio (reactivity profile), Q15306_C194 (IRF4 C194 (Q15306)) | isoTOP-ABPP ratio (reactivity profile), Q15084_C190 (PDIA6 C190 (Q15084); 500 μm in-vitro ramos) | isoTOP-ABPP ratio (reactivity profile), Q15084_C190 (PDIA6 C190 (Q15084); 500 μm in-vitro ramos_231) | isoTOP-ABPP ratio (reactivity profile), Q16763_C118 (UBE2S C118 (Q16763)) | isoTOP-ABPP ratio (reactivity profile), P15374_C95 (UCHL3 C95 (P15374); 500 μm in-vitro ramos) | isoTOP-ABPP ratio (reactivity profile), P15374_C95 (UCHL3 C95 (P15374); 500 μm in-vitro ramos_231) | isoTOP-ABPP ratio (reactivity profile), O14980_C34 (XPO1 C34 (O14980); 500 μm in-vitro ramos) | isoTOP-ABPP ratio (reactivity profile), O14980_C34 (XPO1 C34 (O14980); 500 μm in-vitro ramos_231) | isoTOP-ABPP ratio (reactivity profile), O75362_C286 (ZNF217 C286 (O75362)) | isoTOP-ABPP ratio (reactivity profile), O75874_C269 (IDH1 C269 (O75874); 500 μm in-vitro ramos_231) |
| --- | --- | --- | --- | --- | --- | --- | --- | --- | --- | --- | --- | --- | --- | --- |
| O=C(CCl)N1CCC(C(O)(c2ccccc2)c2ccccc2)CC1 [compound 20] | 1.1 | 2.5 | 20 | 0.6 | 3.0 | 2.1 | 2.1 | 2.9 | 0.9 | 1.0 | 1.2 | 1.0 | 1.3 |  |
| O=C(CCl)N1CCOCC1 [compound 22] | 0.7 | 0.9 |  |  | 1.1 | 4.2 | 2.2 | 0.9 | 0.7 |  |  | 1.1 |  | 1.0 |
| CC(Br)C(=O)Nc1cc(C(F)(F)F)cc(C(F)(F)F)c1 (centres unmarked) [compound 24] | 1.6 |  |  | 0.9 | 1.9 | 1.7 |  | 1.2 | 1.1 |  | 1.1 |  |  |  |
